Data taken from the supplement of paper PMC10307832.

Legend:
Assay in all cases: relative viability (nuclei count vs DMSO), 5 days (fraction); higher = more cells survive
Afatinib = compound: CN(C)C/C=C/C(=O)Nc1cc2c(Nc3ccc(F)c(Cl)c3)ncnc2cc1O[C@H]1CCOC1 [Afatinib]
Method in brief: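 After an overnight hold at 37 °C, lung cancer cell lines in 1536-well plates were pinned with five library-drug doses (not always all listed), each √10 from the next, on vehicle-anchored plates. The cells stayed 5 days without fresh medium, then a one-step fix, permeabilisation and Hoechst stain preceded 4× imaging and MetaXpress nuclear counts. A plate passed only with control CV under 25% and at least one doubling. Viability is the median, over plates, of treated-well nuclei relative to vehicle-well nuclei.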

Afatinib + Bortezomib = compound: CN(C)C/C=C/C(=O)Nc1cc2c(Nc3ccc(F)c(Cl)c3)ncnc2cc1O[C@H]1CCOC1 [Afatinib] + CC(C)C[C@H](NC(=O)[C@H](Cc1ccccc1)NC(=O)c1cnccn1)B(O)O [Bortezomib] (partner 0.002 µM)
Method in brief: (§1)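 A single step with final 0.05% Triton X-100, 1% formaldehyde and 1 ug/ml Hoechst fixed the cells and stained nuclei 5 days after treatment. Lung cancer cell lines in 1536-well plates had been treated by pin tool the day after seeding with one drug alone or a fixed anchor-drug dose plus five library-drug doses (not always all listed) in √10 steps, and nuclei were counted on 4× images. Relative viability is the ratio of nuclei in treated wells to nuclei in vehicle wells, taken as the median of duplicate plates.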

Afatinib + Navitoclax = compound: CN(C)C/C=C/C(=O)Nc1cc2c(Nc3ccc(F)c(Cl)c3)ncnc2cc1O[C@H]1CCOC1 [Afatinib] + CC1(C)CCC(c2ccc(Cl)cc2)=C(CN2CCN(c3ccc(C(=O)NS(=O)(=O)c4ccc(N[C@H](CCN5CCOCC5)CSc5ccccc5)c(S(=O)(=O)C(F)(F)F)c4)cc3)CC2)C1 [Navitoclax] (partner 0.5 µM)
Method in brief: as §1

Afatinib + Foretinib = compound: CN(C)C/C=C/C(=O)Nc1cc2c(Nc3ccc(F)c(Cl)c3)ncnc2cc1O[C@H]1CCOC1 [Afatinib] + COc1cc2c(Oc3ccc(NC(=O)C4(C(=O)Nc5ccc(F)cc5)CC4)cc3F)ccnc2cc1OCCCN1CCOCC1 [Foretinib] (partner 0.25 µM)
Method in brief: as §1

Afatinib + Lapatinib = compound: CN(C)C/C=C/C(=O)Nc1cc2c(Nc3ccc(F)c(Cl)c3)ncnc2cc1O[C@H]1CCOC1 [Afatinib] + CS(=O)(=O)CCNCc1ccc(-c2ccc3ncnc(Nc4ccc(OCc5cccc(F)c5)c(Cl)c4)c3c2)o1 [Lapatinib] (partner 2 µM)
Method in brief: as §1

Afatinib + Pictilisib = compound: CN(C)C/C=C/C(=O)Nc1cc2c(Nc3ccc(F)c(Cl)c3)ncnc2cc1O[C@H]1CCOC1 [Afatinib] + CS(=O)(=O)N1CCN(Cc2cc3nc(-c4cccc5[nH]ncc45)nc(N4CCOCC4)c3s2)CC1 [Pictilisib] (partner 1 µM)
Method in brief: as §1

Afatinib + Crizotinib = compound: CN(C)C/C=C/C(=O)Nc1cc2c(Nc3ccc(F)c(Cl)c3)ncnc2cc1O[C@H]1CCOC1 [Afatinib] + C[C@@H](Oc1cc(-c2cnn(C3CCNCC3)c2)cnc1N)c1c(Cl)ccc(F)c1Cl [Crizotinib] (partner 1 µM)
Method in brief: as §1

Afatinib + Linsitinib = compound: CN(C)C/C=C/C(=O)Nc1cc2c(Nc3ccc(F)c(Cl)c3)ncnc2cc1O[C@H]1CCOC1 [Afatinib] + C[C@]1(O)C[C@@H](c2nc(-c3ccc4ccc(-c5ccccc5)nc4c3)c3c(N)nccn32)C1 [Linsitinib] (partner 1 µM)
Method in brief: as §1

Afatinib + Alpelisib = compound: CN(C)C/C=C/C(=O)Nc1cc2c(Nc3ccc(F)c(Cl)c3)ncnc2cc1O[C@H]1CCOC1 [Afatinib] + Cc1nc(NC(=O)N2CCC[C@H]2C(N)=O)sc1-c1ccnc(C(C)(C)C(F)(F)F)c1 [Alpelisib] (partner 2 µM)
Method in brief: as §1

Afatinib + Olaparib = compound: CN(C)C/C=C/C(=O)Nc1cc2c(Nc3ccc(F)c(Cl)c3)ncnc2cc1O[C@H]1CCOC1 [Afatinib] + O=C(c1cc(Cc2n[nH]c(=O)c3ccccc23)ccc1F)N1CCN(C(=O)C2CC2)CC1 [Olaparib] (partner 8 µM)
Method in brief: as §1

Afatinib + Luminespib = compound: CN(C)C/C=C/C(=O)Nc1cc2c(Nc3ccc(F)c(Cl)c3)ncnc2cc1O[C@H]1CCOC1 [Afatinib] + CCNC(=O)c1noc(-c2cc(C(C)C)c(O)cc2O)c1-c1ccc(CN2CCOCC2)cc1 [Luminespib] (partner 0.01 µM)
Method in brief: as §1

Afatinib + OSI-027 = compound: CN(C)C/C=C/C(=O)Nc1cc2c(Nc3ccc(F)c(Cl)c3)ncnc2cc1O[C@H]1CCOC1 [Afatinib] + COc1cccc2cc(-c3nc([C@H]4CC[C@H](C(=O)O)CC4)n4ncnc(N)c34)[nH]c12 [OSI-027] (partner 0.5 µM)
Method in brief: as §1

Afatinib + Tozasertib = compound: CN(C)C/C=C/C(=O)Nc1cc2c(Nc3ccc(F)c(Cl)c3)ncnc2cc1O[C@H]1CCOC1 [Afatinib] + Cc1cc(Nc2cc(N3CCN(C)CC3)nc(Sc3ccc(NC(=O)C4CC4)cc3)n2)n[nH]1 [Tozasertib] (partner 0.1 µM)
Method in brief: as §1

Afatinib + Dasatinib = compound: CN(C)C/C=C/C(=O)Nc1cc2c(Nc3ccc(F)c(Cl)c3)ncnc2cc1O[C@H]1CCOC1 [Afatinib] + Cc1nc(Nc2ncc(C(=O)Nc3c(C)cccc3Cl)s2)cc(N2CCN(CCO)CC2)n1 [Dasatinib] (partner 0.075 µM)
Method in brief: as §1

Afatinib + Phenformin = compound: CN(C)C/C=C/C(=O)Nc1cc2c(Nc3ccc(F)c(Cl)c3)ncnc2cc1O[C@H]1CCOC1 [Afatinib] + N=C(N)NC(=N)NCCc1ccccc1 [Phenformin] (partner 250 µM)
Method in brief: as §1

## Calu-6
Afatinib; 0.005 µM
  relative viability: 1.09
Afatinib; 0.01581 µM
  relative viability: 1
Afatinib; 0.05 µM
  relative viability: 1.02
Afatinib; 0.1581 µM
  relative viability: 0.997
Afatinib; 0.5 µM
  relative viability: 0.986
Afatinib + Bortezomib; first compound 0.005 µM
  relative viability: 1.15
Afatinib + Bortezomib; first compound 0.01581 µM
  relative viability: 0.97
Afatinib + Bortezomib; first compound 0.05 µM
  relative viability: 1.13
Afatinib + Bortezomib; first compound 0.1581 µM
  relative viability: 1
Afatinib + Bortezomib; first compound 0.5 µM
  relative viability: 1.08
Afatinib + Navitoclax; first compound 0.005 µM
  relative viability: 0.836
Afatinib + Navitoclax; first compound 0.01581 µM
  relative viability: 0.786
Afatinib + Navitoclax; first compound 0.05 µM
  relative viability: 0.831
Afatinib + Navitoclax; first compound 0.1581 µM
  relative viability: 0.914
Afatinib + Navitoclax; first compound 0.5 µM
  relative viability: 0.81
Afatinib + Foretinib; first compound 0.005 µM
  relative viability: 0.913
Afatinib + Foretinib; first compound 0.01581 µM
  relative viability: 0.975
Afatinib + Foretinib; first compound 0.05 µM
  relative viability: 0.882
Afatinib + Foretinib; first compound 0.1581 µM
  relative viability: 0.88
Afatinib + Foretinib; first compound 0.5 µM
  relative viability: 0.93
Afatinib + Lapatinib; first compound 0.005 µM
  relative viability: 1.15
Afatinib + Lapatinib; first compound 0.01581 µM
  relative viability: 1.12
Afatinib + Lapatinib; first compound 0.05 µM
  relative viability: 1.08
Afatinib + Lapatinib; first compound 0.1581 µM
  relative viability: 1.09
Afatinib + Lapatinib; first compound 0.5 µM
  relative viability: 1.12
Afatinib + Pictilisib; first compound 0.005 µM
  relative viability: 0.999
Afatinib + Pictilisib; first compound 0.01581 µM
  relative viability: 0.941
Afatinib + Pictilisib; first compound 0.05 µM
  relative viability: 1.01
Afatinib + Pictilisib; first compound 0.1581 µM
  relative viability: 0.964
Afatinib + Pictilisib; first compound 0.5 µM
  relative viability: 0.989
Afatinib + Crizotinib; first compound 0.005 µM
  relative viability: 0.861
Afatinib + Crizotinib; first compound 0.01581 µM
  relative viability: 0.654
Afatinib + Crizotinib; first compound 0.05 µM
  relative viability: 0.869
Afatinib + Crizotinib; first compound 0.1581 µM
  relative viability: 0.8
Afatinib + Crizotinib; first compound 0.5 µM
  relative viability: 0.755
Afatinib + Linsitinib; first compound 0.005 µM
  relative viability: 0.858
Afatinib + Linsitinib; first compound 0.01581 µM
  relative viability: 0.876
Afatinib + Linsitinib; first compound 0.05 µM
  relative viability: 1.06
Afatinib + Linsitinib; first compound 0.1581 µM
  relative viability: 0.933
Afatinib + Linsitinib; first compound 0.5 µM
  relative viability: 0.891
Afatinib + Alpelisib; first compound 0.005 µM
  relative viability: 1.05
Afatinib + Alpelisib; first compound 0.01581 µM
  relative viability: 0.922
Afatinib + Alpelisib; first compound 0.05 µM
  relative viability: 1.03
Afatinib + Alpelisib; first compound 0.1581 µM
  relative viability: 1.01
Afatinib + Alpelisib; first compound 0.5 µM
  relative viability: 0.88
Afatinib + Olaparib; first compound 0.005 µM
  relative viability: 0.565
Afatinib + Olaparib; first compound 0.01581 µM
  relative viability: 0.565
Afatinib + Olaparib; first compound 0.05 µM
  relative viability: 0.607
Afatinib + Olaparib; first compound 0.1581 µM
  relative viability: 0.573
Afatinib + Olaparib; first compound 0.5 µM
  relative viability: 0.545

## NCI-H1623
Afatinib; 0.005 µM
  relative viability: 0.822
Afatinib; 0.01581 µM
  relative viability: 0.813
Afatinib; 0.05 µM
  relative viability: 0.42
Afatinib; 0.1581 µM
  relative viability: 0.221
Afatinib; 0.5 µM
  relative viability: 0.267
Afatinib + Luminespib; first compound 0.005 µM
  relative viability: 0.489
Afatinib + Luminespib; first compound 0.01581 µM
  relative viability: 0.454
Afatinib + Luminespib; first compound 0.05 µM
  relative viability: 0.325
Afatinib + Luminespib; first compound 0.1581 µM
  relative viability: 0.214
Afatinib + Luminespib; first compound 0.5 µM
  relative viability: 0.281
Afatinib + Foretinib; first compound 0.005 µM
  relative viability: 0.694
Afatinib + Foretinib; first compound 0.01581 µM
  relative viability: 0.597
Afatinib + Foretinib; first compound 0.05 µM
  relative viability: 0.414
Afatinib + Foretinib; first compound 0.1581 µM
  relative viability: 0.213
Afatinib + OSI-027; first compound 0.005 µM
  relative viability: 0.394
Afatinib + OSI-027; first compound 0.01581 µM
  relative viability: 0.324
Afatinib + OSI-027; first compound 0.05 µM
  relative viability: 0.255
Afatinib + OSI-027; first compound 0.1581 µM
  relative viability: 0.189
Afatinib + OSI-027; first compound 0.5 µM
  relative viability: 0.243
Afatinib + Tozasertib; first compound 0.005 µM
  relative viability: 0.397
Afatinib + Tozasertib; first compound 0.01581 µM
  relative viability: 0.346
Afatinib + Tozasertib; first compound 0.05 µM
  relative viability: 0.285
Afatinib + Tozasertib; first compound 0.1581 µM
  relative viability: 0.121
Afatinib + Tozasertib; first compound 0.5 µM
  relative viability: 0.148
Afatinib + Dasatinib; first compound 0.005 µM
  relative viability: 0.446
Afatinib + Dasatinib; first compound 0.01581 µM
  relative viability: 0.472
Afatinib + Dasatinib; first compound 0.05 µM
  relative viability: 0.375
Afatinib + Dasatinib; first compound 0.1581 µM
  relative viability: 0.198
Afatinib + Dasatinib; first compound 0.5 µM
  relative viability: 0.226
Afatinib + Phenformin; first compound 0.005 µM
  relative viability: 0.548
Afatinib + Phenformin; first compound 0.01581 µM
  relative viability: 0.499
Afatinib + Phenformin; first compound 0.05 µM
  relative viability: 0.36
Afatinib + Phenformin; first compound 0.1581 µM
  relative viability: 0.16
Afatinib + Phenformin; first compound 0.5 µM
  relative viability: 0.431
